Molecular target: T1, human dopamine transporter (hDAT) (Homo sapiens, UniProt Q01959)
T1 construct: gene SLC6A3
T1 sequence (Q01959 whole entry): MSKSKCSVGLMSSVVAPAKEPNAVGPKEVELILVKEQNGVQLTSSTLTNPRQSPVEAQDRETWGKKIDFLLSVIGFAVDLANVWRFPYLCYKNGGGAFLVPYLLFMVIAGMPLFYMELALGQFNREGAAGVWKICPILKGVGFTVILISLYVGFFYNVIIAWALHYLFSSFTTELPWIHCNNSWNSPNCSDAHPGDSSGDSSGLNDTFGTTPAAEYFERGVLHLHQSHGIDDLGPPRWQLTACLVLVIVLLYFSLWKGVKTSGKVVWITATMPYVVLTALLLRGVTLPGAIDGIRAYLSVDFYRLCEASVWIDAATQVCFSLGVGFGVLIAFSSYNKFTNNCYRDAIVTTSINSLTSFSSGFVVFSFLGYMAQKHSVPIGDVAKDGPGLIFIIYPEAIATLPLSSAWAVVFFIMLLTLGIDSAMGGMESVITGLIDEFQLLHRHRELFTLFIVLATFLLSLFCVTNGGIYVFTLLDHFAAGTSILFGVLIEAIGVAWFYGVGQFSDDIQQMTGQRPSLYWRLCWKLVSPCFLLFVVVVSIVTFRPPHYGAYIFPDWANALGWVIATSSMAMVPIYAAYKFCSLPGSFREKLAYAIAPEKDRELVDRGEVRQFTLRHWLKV

NCCc1ccc(O)c(O)c1 [DA, dopamine]
3H-dopamine uptake kinetics (Km, Vmax) in PAE cells stably expressing hDAT: Michaelis–Menten non-linear regression analysis was performed, providing transporter dopamine affinity (Km) and capacity (Vmax) for each condition
